Results reported in article PMC8480776, “Selenium Derivatives as Promising Therapy for Chagas Disease: In Vitro and In Vivo Studies” (ACS Infectious Diseases, 2021).
Like-named read-outs stand apart in the source and are kept apart here.

Experiments:
[1] = test system: T. cruzi epimastigotes, Arequipa strain; test: Screening against extracellular epimastigotes, Arequipa strain; type: cell-based, Trypanosoma cruzi
[2] = test system: T. cruzi epimastigotes, SN3 strain; test: Screening against extracellular epimastigotes, SN3 strain; type: cell-based, Trypanosoma cruzi
[3] = test system: T. cruzi epimastigotes, Tulahuen strain; test: Screening against extracellular epimastigotes, Tulahuen strain; type: cell-based, Trypanosoma cruzi
Vero cells = test: Cytotoxicity test on Vero cells; type: cell-based; details: Chlorocebus sabaeus, 48 h + 24 h resazurin, read-out: Toxicity IC50 Vero cell
[4] = test system: T. cruzi amastigotes, Arequipa strain; test: Screening against intracellular amastigotes, Arequipa strain; type: cell-based, Trypanosoma cruzi
[5] = test system: T. cruzi amastigotes, SN3 strain; test: Screening against intracellular amastigotes, SN3 strain; type: cell-based, Trypanosoma cruzi
[6] = test system: T. cruzi amastigotes, Tulahuen strain; test: Screening against intracellular amastigotes, Tulahuen strain; type: cell-based, Trypanosoma cruzi
[7] = test system: T. cruzi trypomastigotes, Arequipa strain; test: Screening against bloodstream trypomastigotes, Arequipa strain; type: cell-based, Trypanosoma cruzi
[8] = test system: T. cruzi trypomastigotes, SN3 strain; test: Screening against bloodstream trypomastigotes, SN3 strain; type: cell-based, Trypanosoma cruzi
[9] = test system: T. cruzi trypomastigotes, Tulahuen strain; test: Screening against bloodstream trypomastigotes, Tulahuen strain; type: cell-based, Trypanosoma cruzi
[10] = test system: Vero cells infected with T. cruzi Arequipa strain; test: Infection rate in Vero cells (infected cells), Arequipa strain; type: cell-based; details: Trypanosoma cruzi, 72 h of treatment
T. cruzi Arequipa strain = test: In vivo trypanocidal activity on BALB/c mice (acute and chronic Chagas disease); set-up: species or system Trypanosoma cruzi
Description: (§1) Female BALB/c mice aged 10–12 weeks and with a size of 20–24 g were divided into five groups (n = 3 per group): 0, negative control group (uninfected and untreated mice); I, positive control group (infected and untreated mice); II, BZN group (infected mice treated with BZN); III, 26 group (infected mice treated with 26); and IV, 28 group (infected mice treated with 28).
Mice were infected by intraperitoneal injection of 5 × 10^5 BTs of T. cruzi Arequipa strain per mouse in 200 μL PBS.[42] Subsequently, the treatment was intraperitoneally administered (∼200 μL) once daily for 5 consecutive days.
(§2) The tested selenocompounds and BZN were prepared at 2 mg·mL^–1 in an aqueous suspension vehicle containing 5% (v/v) DMSO and 0.5% (w/v) hydroxypropyl methylcellulose, as previously reported.[52] Compounds (20 mg·kg^–1 per day) were administered for 5 consecutive days (total dosages of 100 mg·kg^–1), and vehicle only was administered in the negative and positive control groups. Treatments began when the infection was confirmed (9 dpi) for acute-phase-treated mice, and when it was established that the animals moved into the chronic phase (100 dpi, for chronic-phase-treated mice; Scheme 1).
[…]. Parasitemia was expressed as parasites·mL^–1.
Immunosuppression was performed by intraperitoneal injection of three doses of 200 mg·kg^–1 of ISOPAC CP at 3–4 day intervals (Scheme 1), as previously reported.[53] Mice were closely monitored for side effects or for secondary infections due to immunosuppression. Within 7 days after the last CP injection, parasitemia reactivation was determined by counting BTs according the procedure described for parasitemia in the acute phase.[42]
On 145 dpi, the mice were euthanized using CO2, followed by exsanguination via cardiac puncture, and blood was collected. […]. In addition, spleens were weighed to assess splenomegaly.[42]
DNA extraction of the post-mortem organs/tissues was performed using Wizard Genomic DNA Purification Kit,[41] and the extracted DNA was subjected to amplification by PCR based on the spliced leader (SL) intergenic region sequence of T. cruzi (for detailed description, see literature reported previously).[55] Finally, the PCR products were resolved by electrophoresis on a 2% agarose gel (containing GelRed nucleic gel stain) for 90 min at 90 V.
Circulating antibodies in serum against both antigens were quantitatively evaluated in triplicate by the ELISA test in 96-well plates using diluted serum samples (1:80 in PBS), as previously described.[41]

[11] = type: in vivo, BALB/c mice; details: variation vs control
Description: as §1, §2
Serum samples obtained from blood in several days post-infection (Scheme 1) were sent to the Biochemical Service (University of Granada) to measure a series of biochemical parameters with the commercial Cromakit using a clinical chemistry analyzer (BS-200, Shenzhen Mindray Biomedical Electronics Co., LTD), as previously described.[41]

[12] = test system: epimastigotes of T. cruzi Arequipa strain; test: Flow cytometry analysis of nucleic acid levels (acridine orange); type: cell-based, Trypanosoma cruzi; details: IC25 concentrations, 72 h
Trypanosoma cruzi Fe-SOD = test: SOD enzymatic inhibition, Fe-SOD; type: biochemical
[13] = molecular target: T1, human erythrocytes CuZn-SOD (Homo sapiens, UniProt P00441); test: SOD enzymatic inhibition, CuZn-SOD; type: biochemical
T1 construct: commercial copper/zinc superoxide dismutase (Cu/Zn-SOD) from human erythrocytes (Sigma-Aldrich); purchased Sigma-Aldrich; host or cells: human erythrocytes (natural source)

[14] = IC50 Vero cells/IC50 epimastigotes
[15] = IC50 Vero cells/IC50 amastigotes
[16] = IC50 Vero cells/IC50 trypomastigotes
[17] = 20 mg·kg–1 per day i.p. 5 days from 9 dpi
[18] = 20 mg·kg–1 per day i.p. 5 days from 100 dpi
[19] = treatment in acute phase, 15th dpi (2 days after treatment)
[20] = treatment in acute phase, necropsy day
[21] = treatment in chronic phase, 106th dpi (2 days after treatment)
[22] = treatment in chronic phase, necropsy day

T1 sequence (P00441 whole entry): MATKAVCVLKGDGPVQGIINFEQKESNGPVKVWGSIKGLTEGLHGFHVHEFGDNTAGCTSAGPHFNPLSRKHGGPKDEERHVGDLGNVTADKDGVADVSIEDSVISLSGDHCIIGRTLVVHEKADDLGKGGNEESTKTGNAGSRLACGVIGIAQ

## N#C[Se]c1ccc(NC(=O)c2ccco2)cc1 [Compound 28]
[1]; [14]
  Selectivity index (SI), epimastigotes, Arequipa strain: 19
[1]; Trypanosoma cruzi, 48 h + 24 h resazurin, read-out: Activity IC50, epimastigote form, Arequipa strain
  IC50: 4.8 ± 0.4 µM
[2]; [14]
  Selectivity index (SI), epimastigotes, SN3 strain: 24
[2]; Trypanosoma cruzi, 48 h + 24 h resazurin, read-out: Activity IC50, epimastigote form, SN3 strain
  IC50: 3.8 ± 0.4 µM
[3]; [14]
  Selectivity index (SI), epimastigotes, Tulahuen strain: 19
[3]; Trypanosoma cruzi, TULAHUEN, 48 h + 24 h resazurin, read-out: Activity IC50, epimastigote form, Tulahuen strain
  IC50: 4.6 ± 0.3 µM
Vero cells
  CC50: 89.3 ± 7.5 µM
[4]; [15]
  selectivity index (SI), Arequipa strain, am. forms: 28
[4]; Trypanosoma cruzi, amastigotes in Vero cells, 72 h, read-out: activity IC50, Arequipa strain, am. forms
  IC50: 3.2 ± 0.4 µM
[5]; [15]
  selectivity index (SI), SN3 strain, am. forms: 53
[5]; Trypanosoma cruzi, amastigotes in Vero cells, 72 h, read-out: activity IC50, SN3 strain, am. forms
  IC50: 1.7 ± 0.4 µM
[6]; [15]
  selectivity index (SI), Tulahuen strain, am. forms: 33
[6]; Trypanosoma cruzi, TULAHUEN, amastigotes in Vero cells, 72 h, read-out: activity IC50, Tulahuen strain, am. forms
  IC50: 2.7 ± 0.3 µM
[7]; [16]
  selectivity index (SI), Arequipa strain, trypom. forms: 50
[7]; Trypanosoma cruzi, bloodstream trypomastigotes, 24 h + 4 h resazurin, read-out: activity IC50, Arequipa strain, trypom. forms
  IC50: 1.8 ± 0.1 µM
[8]; [16]
  selectivity index (SI), SN3 strain, trypom. forms: 53
[8]; Trypanosoma cruzi, bloodstream trypomastigotes, 24 h + 4 h resazurin, read-out: activity IC50, SN3 strain, trypom. forms
  IC50: 1.7 ± 0.2 µM
[9]; [16]
  selectivity index (SI), Tulahuen strain, trypom. forms: 50
[9]; Trypanosoma cruzi, TULAHUEN, bloodstream trypomastigotes, 24 h + 4 h resazurin, read-out: activity IC50, Tulahuen strain, trypom. forms
  IC50: 1.8 ± 0.2 µM
[10]
  IC50: 19.7 µM
T. cruzi Arequipa strain; [17]
  anti-T. cruzi IgG levels (ELISA), acute phase treatment: lower IgG values than the treated with BZN at the beginning of the treatment
  splenomegaly reduction in comparison with untreated mice, acute phase treatment: 37%
T. cruzi Arequipa strain; 20 mg·kg–1 per day i.p. 5 days from 9 dpi, compared to untreated group
  parasitaemia reactivation after immunosuppression, acute phase treatment: approximately 95%
T. cruzi Arequipa strain; [18]
  anti-T. cruzi IgG levels (ELISA), chronic phase treatment: similar
  splenomegaly reduction in comparison with untreated mice, chronic phase treatment: 48%
T. cruzi Arequipa strain; 20 mg·kg–1 per day i.p. 5 days from 100 dpi, compared to untreated group
  parasitaemia reactivation after immunosuppression, chronic phase treatment: ~85%
T. cruzi Arequipa strain; 20 mg·kg–1 per day i.p. 5 days, necropsy 145 dpi
  parasite levels in target organs/tissues by PCR (in words): did not decrease enough parasite levels in the analyzed tissues
T. cruzi Arequipa strain; 20 mg·kg–1 per day i.p. for 5 days from 9 dpi
  parasitaemia profile during the acute phase: slight antiparasitic activity over the first month
[11]; [19]
  ALP (liver marker): + (+/-, 10-20% increase/decrease over the range)
  ALT/GPT (liver marker): ++ (++/--, 20-30% increase/decrease over the range)
  AST/GOT (liver marker): ++ (++/--, 20-30% increase/decrease over the range)
  CK-MB (heart marker): ++++ (++++/----, ˃ 40% increase/decrease over the range)
  LDH (heart marker): - (+/-, 10-20% increase/decrease over the range)
  Total bilirubin (liver marker): ++ (++/--, 20-30% increase/decrease over the range)
  Urea (kidney marker): -- (++/--, 20-30% increase/decrease over the range)
  Uric acid (kidney marker): ---- (++++/----, ˃ 40% increase/decrease over the range)
[11]; [20]
  ALP (liver marker): + (+/-, 10-20% increase/decrease over the range)
  ALT/GPT (liver marker): ++ (++/--, 20-30% increase/decrease over the range)
  AST/GOT (liver marker): + (+/-, 10-20% increase/decrease over the range)
  CK-MB (heart marker): = (=, variation ≤ 10%)
  LDH (heart marker): = (=, variation ≤ 10%)
  Total bilirubin (liver marker): = (=, variation ≤ 10%)
  Urea (kidney marker): = (=, variation ≤ 10%)
  Uric acid (kidney marker): - (+/-, 10-20% increase/decrease over the range)
[11]; [21]
  ALP (liver marker): + (+/-, 10-20% increase/decrease over the range)
  ALT/GPT (liver marker): + (+/-, 10-20% increase/decrease over the range)
  AST/GOT (liver marker): = (=, variation ≤ 10%)
  CK-MB (heart marker): ++ (++/--, 20-30% increase/decrease over the range)
  LDH (heart marker): = (=, variation ≤ 10%)
  Total bilirubin (liver marker): = (=, variation ≤ 10%)
  Urea (kidney marker): = (=, variation ≤ 10%)
  Uric acid (kidney marker): = (=, variation ≤ 10%)
[11]; [22]
  ALP (liver marker): = (=, variation ≤ 10%)
  ALT/GPT (liver marker): = (=, variation ≤ 10%)
  AST/GOT (liver marker): + (+/-, 10-20% increase/decrease over the range)
  CK-MB (heart marker): + (+/-, 10-20% increase/decrease over the range)
  LDH (heart marker): = (=, variation ≤ 10%)
  Total bilirubin (liver marker): = (=, variation ≤ 10%)
  Urea (kidney marker): = (=, variation ≤ 10%)
  Uric acid (kidney marker): = (=, variation ≤ 10%)
[12]
  inhibition of nucleic acid levels: 62%
Trypanosoma cruzi Fe-SOD
  IC50: 9.4 µM
[13]
  IC50: > 100 µM
